From ChEMBL document CHEMBL5518221, “Discovery and Optimization of Selective Brain-Penetrant EBP Inhibitors that Enhance Oligodendrocyte Formation” (J Med Chem, 2024)
In brackets after ≈: the same amount, converted by molar mass. Values belong to the compound of their own block, whether it stands above or below them.

Tests used:
[1] = in vitro; conditions: CD-1, mouse, pooled liver microsomes
[2] = target: T1, 3-beta-hydroxysteroid-Delta(8),Delta(7)-isomerase (Mus musculus, UniProt P70245); test: Inhibition of EBP in mouse Oligodendrocyte precursor cell assessed as zymostenol accumulation by GCMS analysis
T1 sequence (P70245 whole entry): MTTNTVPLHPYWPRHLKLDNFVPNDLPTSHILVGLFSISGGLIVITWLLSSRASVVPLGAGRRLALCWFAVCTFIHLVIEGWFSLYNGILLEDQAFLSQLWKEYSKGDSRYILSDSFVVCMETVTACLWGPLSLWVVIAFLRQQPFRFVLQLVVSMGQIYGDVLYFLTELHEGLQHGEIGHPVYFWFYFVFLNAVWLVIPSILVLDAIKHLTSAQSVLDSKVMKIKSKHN

[3] = Half-life in female C57BL/6 mouse at 1 mg/kg, iv measured after 0.083 hrs by LC-MS/MS analysis; conditions: in vivo
[4] = Dissociation constant, pKa of compound
[5] = target: Voltage-gated inwardly rectifying potassium channel KCNH2 (Homo sapiens, UniProt Q12809); test: Inhibition of human ERG expressed in CHO cells by whole cell patch clamp recording
[6] = target: 3-beta-hydroxysteroid-Delta(8),Delta(7)-isomerase (Homo sapiens, UniProt Q15125); test: Inhibition of EBP in human Mesenchymal stem cells assessed as zymostenol accumulation by GCMS analysis
[7] = Unbound brain-to-plasma concentration ratio in male Sprague-Dawley rat at 1 mg/kg, iv measured after 8 hrs by LC-MS/MS analysis
[8] = Half-life in male Sprague-Dawley rat at 1 mg/kg, iv measured after 8 hrs by LC-MS/MS analysis; conditions: in vivo
[9] = Clearance in male Sprague-Dawley rat at 1 mg/kg, iv measured after 8 hrs by LC-MS/MS analysis; conditions: in vivo
[10] = Clearance in female C57BL/6 mouse at 1 mg/kg, iv measured after 0.083 hrs by LC-MS/MS analysis; conditions: in vivo
[11] = Unbound brain-to-plasma concentration ratio in female C57BL/6 mouse at 1 mg/kg, iv measured after 8 hrs by LC-MS/MS analysis
[12] = Volume of distribution at steady state in female C57BL/6 mouse at 1 mg/kg, iv measured after 0.083 hrs by LC-MS/MS analysis; conditions: in vivo
[13] = Volume of distribution at steady state in male Sprague-Dawley rat at 1 mg/kg, iv measured after 8 hrs by LC-MS/MS analysis; conditions: in vivo
[14] = Unbound brain-to-plasma concentration ratio in male Sprague-Dawley rat at 5 mg/kg, po measured after 8 hrs by LC-MS/MS analysis
[15] = tested on: BCRP; test: in vitro; conditions: dog
[16] = Protein binding in CD-1 mouse plasma at 5 uM incubated for 6 hrs by equilibrium dialysis based HPLC analysis
[17] = Half-life in female C57BL/6 mouse at 10 mg/kg, po measured after 24 hrs by LC-MS/MS analysis; conditions: in vivo
[18] = Protein binding in human plasma at 5 uM incubated for 6 hrs by equilibrium dialysis based HPLC analysis
[19] = in vivo; conditions: female, C57BL/6, mouse, po, 10 mg/kg
[20] = Kinetic solubility of compound in PBS at pH 7.4
[21] = in vivo; conditions: male, Sprague-Dawley, rat, po, 5 mg/kg
[22] = Protein binding in Sprague-Dawley rat plasma at 5 uM incubated for 6 hrs by equilibrium dialysis based HPLC analysis
[23] = tested on: MDR1; test: in vitro; conditions: dog, MDCK-MDR1
[24] = Unbound brain-to-plasma concentration ratio in female C57BL/6 mouse at 10 mg/kg, po measured after 8 hrs by LC-MS/MS analysis
[25] = Half-life in male Sprague-Dawley rat at 5 mg/kg, po measured after 8 hrs by LC-MS/MS analysis; conditions: in vivo
[26] = Unbound brain-to-plasma concentration ratio in female C57BL/6 mouse at 0.2 mg/kg administered daily for 7 days and measured 8 hrs post last dose
[27] = in vivo; conditions: female, C57BL/6, mouse, brain/plasma, 2 mg/kg
Description: Unbound brain-to-plasma concentration ratio in female C57BL/6 mouse at 2 mg/kg administered daily for 7 days and measured 8 hrs post last dose

Voltage-gated inwardly rectifying potassium channel KCNH2, sequence (Q12809 whole entry): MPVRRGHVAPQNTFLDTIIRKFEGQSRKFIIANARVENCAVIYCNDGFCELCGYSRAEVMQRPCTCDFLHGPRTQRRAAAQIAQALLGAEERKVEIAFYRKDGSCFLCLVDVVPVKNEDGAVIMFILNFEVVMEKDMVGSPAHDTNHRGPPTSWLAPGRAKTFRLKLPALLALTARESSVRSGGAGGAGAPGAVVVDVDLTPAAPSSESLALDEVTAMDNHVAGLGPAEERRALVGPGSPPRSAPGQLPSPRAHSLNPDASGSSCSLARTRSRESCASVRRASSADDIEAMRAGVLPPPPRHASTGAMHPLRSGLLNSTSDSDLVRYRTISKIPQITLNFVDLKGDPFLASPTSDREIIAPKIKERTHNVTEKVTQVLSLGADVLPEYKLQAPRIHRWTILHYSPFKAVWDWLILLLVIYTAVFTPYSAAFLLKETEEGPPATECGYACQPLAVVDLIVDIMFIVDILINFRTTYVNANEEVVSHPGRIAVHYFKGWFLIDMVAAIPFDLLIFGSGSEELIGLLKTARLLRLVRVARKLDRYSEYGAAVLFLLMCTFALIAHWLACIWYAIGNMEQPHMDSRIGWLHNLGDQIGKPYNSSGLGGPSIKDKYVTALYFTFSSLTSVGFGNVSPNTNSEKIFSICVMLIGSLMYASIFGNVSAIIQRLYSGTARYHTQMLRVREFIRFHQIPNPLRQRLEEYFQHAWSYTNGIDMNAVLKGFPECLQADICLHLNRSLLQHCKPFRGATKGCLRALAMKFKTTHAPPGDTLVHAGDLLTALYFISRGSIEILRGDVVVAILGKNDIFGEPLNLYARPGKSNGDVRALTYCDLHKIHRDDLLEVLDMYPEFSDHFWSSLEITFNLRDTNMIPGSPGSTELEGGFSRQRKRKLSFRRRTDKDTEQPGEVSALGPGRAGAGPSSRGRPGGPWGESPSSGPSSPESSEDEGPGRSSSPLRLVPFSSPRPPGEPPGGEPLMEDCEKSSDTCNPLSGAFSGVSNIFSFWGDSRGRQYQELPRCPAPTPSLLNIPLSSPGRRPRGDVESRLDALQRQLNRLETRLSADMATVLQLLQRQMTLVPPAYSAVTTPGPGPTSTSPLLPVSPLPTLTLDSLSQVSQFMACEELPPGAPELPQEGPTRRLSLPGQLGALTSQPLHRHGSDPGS
3-beta-hydroxysteroid-Delta(8),Delta(7)-isomerase (Homo sapiens, UniProt Q15125), sequence (Q15125 whole entry): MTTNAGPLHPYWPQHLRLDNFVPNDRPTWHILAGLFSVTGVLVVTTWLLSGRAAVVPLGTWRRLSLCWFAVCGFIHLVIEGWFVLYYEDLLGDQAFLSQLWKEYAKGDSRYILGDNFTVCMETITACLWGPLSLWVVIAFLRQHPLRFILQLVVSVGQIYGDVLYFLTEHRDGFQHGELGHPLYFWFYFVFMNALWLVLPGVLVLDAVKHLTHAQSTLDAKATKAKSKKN

CLhep predicted at 1 h, 1 µM [1]: < 14 mL/min/kg | EC50 [2]: 0.018 µM | half-life at […] [3]: 1.8 h
SMILES: CCN1C(=O)N(c2ccc(C)cc2)C(=O)C12CCN(CC1CCOCC1)CC2

CLhep predicted at 1 h, 1 µM [1]: 35 mL/min/kg | EC50 [2]: 0.016 µM | half-life at […] [3]: 0.8 h
SMILES: CCN1C(=O)N(c2cc(Cl)cc(C#N)c2)C(=O)C12CCN(CC1CCOCC1)CC2

EC50 [2]: 0.364 µM | pKa [4]: 8.2
SMILES: CCN1C(=O)N(c2ccc(C(F)(F)F)cc2)C(=O)C12CCN(C1CCOCC1)CC2
IC50 [5]: 4.4 µM

CLhep predicted at 1 h, 1 µM [1]: 18 mL/min/kg | EC50 [6]: 0.147 µM | EC50 [2]: 0.036 µM
SMILES: O=C1N(c2ccc(C(F)(F)F)cc2)CCC12CCN(CC1CCOCC1)CC2

CLhep predicted at 1 h, 1 µM [1]: 25 mL/min/kg | half-life at […] [3]: 5.7 h
SMILES: CCN1C(=O)N(c2ccc(Cl)cc2)C(=O)C12CCN(CC1CCOCC1)CC2

Kp uu at 8 h [7]: 1.59 | CLhep predicted at 1 h, 1 µM [1]: 17 mL/min/kg | half-life at 8 h [8]: 16 h | EC50 [2]: 0.006 µM | clearance at 8 h [9]: 6.3 mL/min/kg | clearance at […] [10]: 4 mL/min/kg | pKa [4]: 7.9 | Kp uu at 8 h [11]: 0.95 | half-life at […] [3]: 62 h | Vd at […] [12]: 7.4 L/kg | Vd at 8 h [13]: 8.3 L/kg
SMILES: CCN1C(=O)N(c2ccc(C(F)(F)F)cc2)C(=O)C12CCN(CC1CCOCC1)CC2
IC50 [5]: 3 µM

CLhep predicted at 1 h, 1 µM [1]: 47 mL/min/kg | EC50 [2]: 0.009 µM | half-life at […] [3]: 1.2 h
SMILES: CCN1C(=O)N(c2cccc(C3CC3)c2)C(=O)C12CCN(CC1CCOCC1)CC2

CLhep predicted at 1 h, 1 µM [1]: < 14 mL/min/kg | EC50 [2]: 0.02 µM
SMILES: CN1C(=O)N(c2ccc(C(F)(F)F)cc2)C(=O)C12CCN(CC1CCOCC1)CC2

CLhep predicted at 1 h, 1 µM [1]: < 14 mL/min/kg
SMILES: O=C1N(c2ccc(C(F)(F)F)cc2)C(=O)C2(CCN(CC3CCOCC3)CC2)N1C1CC1

EC50 [2]: 0.043 µM | pKa [4]: 8.1
SMILES: CCN1C(=O)N(c2ccc(C(F)(F)F)cc2)C(=O)C12CCN(CC1CCS(=O)(=O)CC1)CC2
IC50 [5]: 73 µM

CLhep predicted at 1 h, 1 µM [1]: < 14 mL/min/kg | EC50 [6]: 0.669 µM | EC50 [2]: 0.315 µM
SMILES: CC(C)N1C(=O)N(c2ccc(C(F)(F)F)cc2)C(=O)C12CCN(CC1CCOCC1)CC2

EC50 [2]: 0.041 µM | pKa [4]: 8.2
SMILES: CCN1C(=O)N(c2ccc(C(F)(F)F)cc2)C(=O)C12CCN(C(C)C1CCOCC1)CC2 (stereo not given)
IC50 [5]: 2.9 µM

EC50 [2]: 0.095 µM | pKa [4]: 8.1
SMILES: CCN1C(=O)N(c2ccc(C(F)(F)F)cc2)C(=O)C12CCN(C1CCCOCC1)CC2 (stereo not given)
IC50 [5]: 0.85 µM

Kp uu at 8 h [14]: 0.58 | Kp uu at 8 h [7]: 0.6 | CLhep predicted at 1 h, 1 µM [1]: < 14 mL/min/kg | half-life at 8 h [8]: 12 h | Papp A→B [15]: 20 ×10⁻⁶ cm/s | fraction unbound at 6 h, 5 µM [16]: 0.376 | half-life at 24 h [17]: 5.3 h | clearance at 8 h [9]: 9.2 mL/min/kg | clearance at […] [10]: 9.9 mL/min/kg | fraction unbound at 6 h, 5 µM [18]: 0.296 | bioavailability at 24 h [19]: 47% | Kp uu at 8 h [11]: 0.56 | solubility kinetic [20]: 29 µM (≈ 12.9 µg/mL) | bioavailability at 8 h [21]: 13% | half-life at […] [3]: 5.7 h | fraction unbound at 6 h, 5 µM [22]: 0.278 | Vd at […] [12]: 5.1 L/kg | Papp A→B [23]: 14 ×10⁻⁶ cm/s | Kp uu at 8 h [24]: 0.62 | Vd at 8 h [13]: 8.3 L/kg
SMILES: CCN1C(=O)N([C@H]2CC[C@H](C(F)(F)F)CC2)C(=O)C12CCN(CC1CCOCC1)CC2
IC50 [5]: 8 µM

EC50 [2]: 0.068 µM | pKa [4]: 5.7
SMILES: CCN1C(=O)N(c2ccc(C(F)(F)F)cc2)C(=O)C12CCN(CC1(F)CCOCC1)CC2
IC50 [5]: 65 µM

Kp uu at 8 h [14]: 0.5 | Kp uu at 8 h [7]: 0.74 | CLhep predicted at 1 h, 1 µM [1]: < 14 mL/min/kg | half-life at 8 h [8]: 4.4 h | Papp A→B [15]: 20 ×10⁻⁶ cm/s | EC50 [2]: 0.008 µM | fraction unbound at 6 h, 5 µM [16]: 0.364 | half-life at 24 h [17]: 3.3 h | clearance at 8 h [9]: 17 mL/min/kg | clearance at […] [10]: 17 mL/min/kg | fraction unbound at 6 h, 5 µM [18]: 0.291 | half-life at 8 h [25]: 5.1 h | bioavailability at 24 h [19]: 68% | Kp uu at 8 h [11]: 0.77 | solubility kinetic [20]: 64 µM (≈ 26.3 µg/mL) | bioavailability at 8 h [21]: 42% | half-life at […] [3]: 3.9 h | fraction unbound at 6 h, 5 µM [22]: 0.3 | Kp uu at 176 h [26]: 1.7 | Vd at […] [12]: 5.2 L/kg | Papp A→B [23]: 15 ×10⁻⁶ cm/s | Kp uu at 8 h [24]: 0.72 | Vd at 8 h [13]: 6.2 L/kg | Kp uu at 176 h [27]: 0.6
SMILES: CCN1C(=O)N(c2ccc(C3CC3)cc2)C(=O)C12CCN(CC1CCOCC1)CC2
IC50 [5]: 8.2 µM

CLhep predicted at 1 h, 1 µM [1]: < 14 mL/min/kg | EC50 [2]: 1 µM
SMILES: O=C1NC2(CCN(CC3CCOCC3)CC2)C(=O)N1c1ccc(C(F)(F)F)cc1
